Measured values from PMC10813298, “Evidence of Guanidines Potential against Leishmania (Viannia) braziliensis: Exploring In Vitro Effectiveness, Toxicities and of Innate Immunity Response Effects” (Biomolecules, 2023).
Where two headings read alike, the source gives them in different places.

Legend:
[1] = system: reactive oxygen species (ROS); test: ROS production (H2DCFDA) in infected RAW 264.7 macrophages; type: cell-based, murine; details: RAW 264.7 macrophages infected with L. (V.) braziliensis
Description: To quantify the levels of ROS generated by L. (V.) braziliensis-infected RAW 264.7 macrophages, the following procedure was employed: RAW 264.7 macrophages (1 × 10^5 cells per well) were added to a 96-well plate, with each well containing 100 μL of supplemented DMEM medium. These cells were allowed to incubate for 3 h at 37 °C with 5% CO2 to promote cell adhesion. Subsequently, the macrophages were infected with L. (V.) braziliensis at a ratio of 10:1 (promastigotes to macrophages) and incubated for 4 h. After the infection period, the cells were plated and incubated with various concentrations of test substances, ranging from 3.12 to 25 μmol/L. This incubation was carried out at 37 °C with 5% CO2 for duration of 72 h. Following the incubation period, 10 µL of H2DCFDA dye was added to each well, resulting in a final concentration of 20 µmol/L. The cells were then incubated at 37 °C in the dark for 30 min. The fluorescent intensity was measured using a fluorescence plate reader (FLx800) at an excitation wavelength of 485 nm and an emission wavelength of 528 nm. The fold change in ROS levels was calculated by comparing the results to a normal control.

[2] = system: L. (V.) braziliensis intramacrophage amastigotes; test: Treatment of RAW 264.7 macrophages infected with L. (V.) braziliensis (intramacrophage amastigotes); type: cell-based, Leishmania (Viannia) braziliensis; details: RAW 264.7 infected with L. (V.) braziliensis, 72 h of treatment
Description: RAW 264.7 macrophages (1 × 10^6 cells/mL) were seeded in 24-well plates containing sterile glass slides, and approximately 500 μL of supplemented DMEM medium was added. The plates were then incubated at 37 °C with 5% CO2 for 4 h to facilitate cell adhesion. Following the adhesion period, promastigotes (1 × 10^7) in the stationary growth phase were introduced into the wells for infection. The plates were then incubated for an additional 4 h to allow infection to take place. Afterward, the medium was carefully removed, and the wells were washed three times with PBS to eliminate any nonadherent cells. Fresh medium containing serial concentrations of the test substances, ranging from 0.78 to 25 μmol/L, was added to the wells. Additionally, a range of concentrations of glucantime (25 to 800 μmol/L) was included for comparison. The treatment was carried out for 72 h in an incubator at 37 °C with 5% CO2. At the end of the 72 h treatment period, the glass lamina was removed from each well and stained using rapid panoptic stain (Laborklin®, Curitiba, Paraná, Brazil). The stained samples were mounted on permanent slides using Entelan® (Sigma-Aldrich, St. Louis, MO, USA), and antileishmanial activity was assessed by measuring the infection rate and counting the number of amastigotes per macrophage. Quantification was performed using light microscopy at a magnification of 1000×, and a total of 300 macrophages per lamina were evaluated. As a negative control, half DMEM containing 0.2% DMSO was used.

[3] = system: L. (L.) infantum promastigotes; set-up: method as in PMID 36977142; details: read-out: IC50 antipromastigote activity; cited from earlier work
[4] = system: L. (V.) braziliensis axenic amastigotes; test: Antileishmanial activity on axenic amastigotes (MTT, 72 h); type: cell-based, Leishmania (Viannia) braziliensis
Description: In vitro amastigogenesis was performed by transformation from promastigotes at the stationary phase of growth to obtention axenic amastigotes. This process involved altering the culture conditions to Schneider’s medium with a pH of 5.5, supplementing them with 5% FBS, and incubating them at a temperature of 32 °C [17].
Assessment of antileishmanial activity against promastigote and amastigote axenic forms of parasites followed the method described by Rodrigues et al. and involved the following steps: L. (V.) braziliensis parasites were cultured in 96-well plates at a concentration of 1 × 10^6 parasites per well. Each well contained 100 μL of supplemented Schneider medium. Serial concentrations of the test substances, ranging from 50 to 1.56 μmol/L, were prepared. Reference drugs, meglumine antimoniate (20 to 40,000 μmol/L) and amphotericin B (0.031 to 2 μmol/L) were also prepared. These concentrations were used to assess the effects of the test substances in comparison to reference drugs. The plates were incubated in a BOD incubator at 26 °C for 72 h. After the 72 h incubation period, 10 μL of MTT (5 mg/mL) was added to each well. The plates were then incubated for an additional 4 h. At the end of the 4 h incubation, formazan crystals formed by the reduction of the MTT salt were solubilized by adding 50 μL of a 10% (w/v) sodium dodecyl sulfate (SDS) solution in distilled water. Absorbance was measured using a microplate reader at a wavelength of 540 nm (Biosystems ELx800 model, Curitiba, PR, Brazil). This measurement quantified the metabolic activity of the parasites, which is indicative of their viability and proliferation. Schneider medium containing 0.2% DMSO was used as a negative control in the tests.

[5] = Leishmania braziliensis, RAW264.7, 72 h

Row | SMILES | ROS level [1] | EC50 [2, 5] [µM] | EC50 [2] [µM] | IC50 [3] [µM] | EC50 ([4]; Leishmania braziliensis) [µM] | EC50 [4] [µM]
1 | CC(C)(C)c1ccc(N/C(=N\C(=O)c2ccccc2)NCc2ccccc2)cc1 [LQOF-G6, (Z)-N-benzoyl-N-benzyl-N-(4-tert-butylphenyl)guanidine] | increased | 3.89 | 3.9 ± 0.1 | 24.4 | 4.3 ± 0.7 | –
2 | O=C(/N=C(/NCc1ccccc1)Nc1ccc(Br)cc1)c1ccccc1 [LQOF-G2, (Z)-N-benzoyl-N-benzyl-N-(4-bromophenyl)guanidine] | increased | 4.21 | 4.2 ± 0.5 | 12.7 | 5 ± 0.8 | –
3 | O=C(/N=C(/NCc1ccccc1)Nc1ccc([N+](=O)[O-])cc1)c1ccccc1 [LQOF-G1, (Z)-N-benzoyl-N-benzyl-N-(4-nitrophenyl)guanidine] | increased | 3.65 | 3.6 ± 0.2 | – | 4.27 | 4.3 ± 0.2
4 | O=C(/N=C(/NCc1ccccc1)Nc1ccc(I)cc1)c1ccccc1 [LQOF-G7, (Z)-N-benzoyl-N-benzyl-N-(4-iodophenyl)guanidine] | – | 8.25 | 8.2 ± 0.7 | 23.6 | 6.1 | –
